Test results reported in the CheMixHub viscosity set.
± gives the uncertainty stated by the source.

Experiment: xn = mol fraction of the nth substance listed

`COCCOC` + CCCCCCCCO gave a viscosity (298.15 K, 101 kPa, x1 = 0.1384) of 4.222 ± 0.025 mPa·s, a viscosity (298.15 K, 101 kPa, x1 = 0.2654) of 2.824 ± 0.017 mPa·s and a viscosity (298.15 K, 101 kPa, x1 = 0.3825) of 1.922 ± 0.012 mPa·s. The viscosity (298.15 K, 101 kPa, x1 = 0.4907) was 1.402 ± 0.009 mPa·s, the viscosity (298.15 K, 101 kPa, x1 = 0.591) was 1.089 ± 0.0072 mPa·s and the viscosity (298.15 K, 101 kPa, x1 = 0.6843) was 0.8523 ± 0.0058 mPa·s. For the same molecule, the viscosity (298.15 K, 101 kPa, x1 = 0.7713) was 0.6745 ± 0.0047 mPa·s, the viscosity (298.15 K, 101 kPa, x1 = 0.8525) was 0.5661 ± 0.0041 mPa·s and the viscosity (298.15 K, 101 kPa, x1 = 0.9286) was 0.4789 ± 0.0036 mPa·s.

With `CCC(C)=O` + CCCCCCCO the viscosity (293.15 K, 100 kPa, x1 = 0.0829) was 5.23 ± 0.53 mPa·s, the viscosity (293.15 K, 100 kPa, x1 = 0.1614) was 3.85 ± 0.39 mPa·s and the viscosity (293.15 K, 100 kPa, x1 = 0.2389) was 3.02 ± 0.3 mPa·s. For the same molecule, the viscosity (293.15 K, 100 kPa, x1 = 0.3509) was 2.1 ± 0.21 mPa·s, the viscosity (293.15 K, 100 kPa, x1 = 0.4404) was 1.64 ± 0.16 mPa·s and the viscosity (293.15 K, 100 kPa, x1 = 0.5592) was 1.16 ± 0.12 mPa·s. For the same molecule, the viscosity (293.15 K, 100 kPa, x1 = 0.6488) was 0.92 ± 0.09 mPa·s, the viscosity (293.15 K, 100 kPa, x1 = 0.7389) was 0.73 ± 0.07 mPa·s and the viscosity (293.15 K, 100 kPa, x1 = 0.8502) was 0.56 ± 0.06 mPa·s. It also gave a viscosity (293.15 K, 100 kPa, x1 = 0.9396) of 0.47 ± 0.05 mPa·s, a viscosity (303.15 K, 100 kPa, x1 = 0.0829) of 3.72 ± 0.37 mPa·s and a viscosity (303.15 K, 100 kPa, x1 = 0.1614) of 2.97 ± 0.3 mPa·s. It also gave a viscosity (303.15 K, 100 kPa, x1 = 0.2389) of 2.31 ± 0.23 mPa·s, a viscosity (303.15 K, 100 kPa, x1 = 0.3509) of 1.69 ± 0.17 mPa·s and a viscosity (303.15 K, 100 kPa, x1 = 0.4404) of 1.31 ± 0.13 mPa·s. For the same molecule, the viscosity (303.15 K, 100 kPa, x1 = 0.5592) was 0.9 ± 0.09 mPa·s, the viscosity (303.15 K, 100 kPa, x1 = 0.6488) was 0.73 ± 0.07 mPa·s and the viscosity (303.15 K, 100 kPa, x1 = 0.7389) was 0.6 ± 0.06 mPa·s. The viscosity (303.15 K, 100 kPa, x1 = 0.8502) was 0.45 ± 0.05 mPa·s, the viscosity (303.15 K, 100 kPa, x1 = 0.9396) was 0.39 ± 0.04 mPa·s and the viscosity (313.15 K, 100 kPa, x1 = 0.0829) was 2.85 ± 0.29 mPa·s. It also gave a viscosity (313.15 K, 100 kPa, x1 = 0.1614) of 2.28 ± 0.23 mPa·s, a viscosity (313.15 K, 100 kPa, x1 = 0.2389) of 1.82 ± 0.18 mPa·s and a viscosity (313.15 K, 100 kPa, x1 = 0.3509) of 1.38 ± 0.14 mPa·s. It also gave a viscosity (313.15 K, 100 kPa, x1 = 0.4404) of 1.11 ± 0.11 mPa·s, a viscosity (313.15 K, 100 kPa, x1 = 0.5592) of 0.82 ± 0.08 mPa·s and a viscosity (313.15 K, 100 kPa, x1 = 0.6488) of 0.68 ± 0.07 mPa·s. It also gave a viscosity (313.15 K, 100 kPa, x1 = 0.7389) of 0.56 ± 0.06 mPa·s, a viscosity (313.15 K, 100 kPa, x1 = 0.8502) of 0.44 ± 0.04 mPa·s and a viscosity (313.15 K, 100 kPa, x1 = 0.9396) of 0.38 ± 0.04 mPa·s. The viscosity (323.15 K, 100 kPa, x1 = 0.0829) was 2.21 ± 0.22 mPa·s, the viscosity (323.15 K, 100 kPa, x1 = 0.1614) was 1.82 ± 0.18 mPa·s and the viscosity (323.15 K, 100 kPa, x1 = 0.2389) was 1.48 ± 0.15 mPa·s. For the same molecule, the viscosity (323.15 K, 100 kPa, x1 = 0.3509) was 1.15 ± 0.12 mPa·s, the viscosity (323.15 K, 100 kPa, x1 = 0.4404) was 0.93 ± 0.09 mPa·s and the viscosity (323.15 K, 100 kPa, x1 = 0.5592) was 0.7 ± 0.07 mPa·s. It also gave a viscosity (323.15 K, 100 kPa, x1 = 0.6488) of 0.58 ± 0.06 mPa·s, a viscosity (323.15 K, 100 kPa, x1 = 0.7389) of 0.5 ± 0.05 mPa·s and a viscosity (323.15 K, 100 kPa, x1 = 0.8502) of 0.39 ± 0.04 mPa·s. The viscosity (323.15 K, 100 kPa, x1 = 0.9396) was 0.34 ± 0.03 mPa·s.

`COCCOC` + CCCCCCCO showed a viscosity (293.15 K, 101 kPa, x1 = 0.04689) of 5.696 ± 0.06 mPa·s, a viscosity (293.15 K, 101 kPa, x1 = 0.1108) of 4.364 ± 0.046 mPa·s and a viscosity (293.15 K, 101 kPa, x1 = 0.1958) of 3.168 ± 0.033 mPa·s. For the same molecule, the viscosity (293.15 K, 101 kPa, x1 = 0.2906) was 2.308 ± 0.024 mPa·s, the viscosity (293.15 K, 101 kPa, x1 = 0.402) was 1.645 ± 0.017 mPa·s and the viscosity (293.15 K, 101 kPa, x1 = 0.4906) was 1.283 ± 0.013 mPa·s. The viscosity (293.15 K, 101 kPa, x1 = 0.6674) was 0.843 ± 0.009 mPa·s, the viscosity (293.15 K, 101 kPa, x1 = 0.7068) was 0.768 ± 0.008 mPa·s and the viscosity (293.15 K, 101 kPa, x1 = 0.8006) was 0.631 ± 0.007 mPa·s. For the same molecule, the viscosity (293.15 K, 101 kPa, x1 = 0.894) was 0.525 ± 0.006 mPa·s, the viscosity (293.15 K, 101 kPa, x1 = 0.948) was 0.477 ± 0.005 mPa·s and the viscosity (303.15 K, 101 kPa, x1 = 0.03301) was 4.403 ± 0.047 mPa·s. It also gave a viscosity (303.15 K, 101 kPa, x1 = 0.1088) of 3.286 ± 0.035 mPa·s, a viscosity (303.15 K, 101 kPa, x1 = 0.1924) of 2.49 ± 0.026 mPa·s and a viscosity (303.15 K, 101 kPa, x1 = 0.2936) of 1.802 ± 0.019 mPa·s. It also gave a viscosity (303.15 K, 101 kPa, x1 = 0.4015) of 1.325 ± 0.014 mPa·s, a viscosity (303.15 K, 101 kPa, x1 = 0.4903) of 1.066 ± 0.011 mPa·s and a viscosity (303.15 K, 101 kPa, x1 = 0.594) of 0.842 ± 0.009 mPa·s. The viscosity (303.15 K, 101 kPa, x1 = 0.7001) was 0.671 ± 0.007 mPa·s, the viscosity (303.15 K, 101 kPa, x1 = 0.8062) was 0.542 ± 0.006 mPa·s and the viscosity (303.15 K, 101 kPa, x1 = 0.8901) was 0.467 ± 0.005 mPa·s. The viscosity (303.15 K, 101 kPa, x1 = 0.9469) was 0.425 ± 0.005 mPa·s, the viscosity (313.15 K, 101 kPa, x1 = 0.04399) was 3.176 ± 0.034 mPa·s and the viscosity (313.15 K, 101 kPa, x1 = 0.1188) was 2.473 ± 0.026 mPa·s. The viscosity (313.15 K, 101 kPa, x1 = 0.1968) was 1.933 ± 0.021 mPa·s, the viscosity (313.15 K, 101 kPa, x1 = 0.2941) was 1.478 ± 0.016 mPa·s and the viscosity (313.15 K, 101 kPa, x1 = 0.404) was 1.121 ± 0.012 mPa·s. It also gave a viscosity (313.15 K, 101 kPa, x1 = 0.4883) of 0.918 ± 0.01 mPa·s, a viscosity (313.15 K, 101 kPa, x1 = 0.6006) of 0.717 ± 0.008 mPa·s and a viscosity (313.15 K, 101 kPa, x1 = 0.6962) of 0.591 ± 0.006 mPa·s. It also gave a viscosity (313.15 K, 101 kPa, x1 = 0.8094) of 0.482 ± 0.005 mPa·s, a viscosity (313.15 K, 101 kPa, x1 = 0.9) of 0.41 ± 0.004 mPa·s and a viscosity (313.15 K, 101 kPa, x1 = 0.9404) of 0.386 ± 0.004 mPa·s.
